Test results from patent publication US20110092488A1, “Quninoline Methanol Compounds for the Treatment and Prevention of Parasitic Infections” (priority 2005, published 2011).

Columns and labels:
[1] = test system: Plasmodium falciparum malaria; details: P. falciparum malaria, South East Asia; WR030090: field trials; cited from earlier work
[2] = test system: Balb/c 3T3 mouse fibroblast cells; experiment: 3T3 neutral red uptake (NRU) phototoxicity test; type: cell-based
Source text: A pharmacophore for phototoxicity was developed to be used as an in silico screening tool to determine the minimum phototoxic concentration for a number of AAQMS (WR069878 and those indicated in Table 5). Minimum phototoxic concentration in a yeast assay for a number of AAQMS, as per Ison et al.; Phototoxicity of Quinoline methanols and other drugs in mice and yeast; J. Invest. Dermatol. (52)193-198 (1969) were used to generate a three-dimensional pharmacophore model using the HypoGen algorithm of the […]® (Accelrys software Inc.) methodology as per Bhattacharjee et al.; A 3D QSAR pharmacophore model and quantum chemical structure—activity analysis of chloroquine(CQ)-resistance reversal; J. Chem Inf. Comput Sci. (42) 1212-1220 (2002), and Dow et al.; as discussed in Antimicrob Agents Chemother. (48)2624-2632 (2004), cited above, both Bhattacharjee et al. and Dow et al, incorporated herein, by reference. The structures of clinically used quinoline methanols were mapped onto the pharmacophores and estimated values for minimum phototoxic concentration were generated. The 3T3 neutral red uptake (NRU) phototoxicity test, conducted by MB Research Laboratories (Spinnerstown, Pa.), was used to identify quinoline methanols (WR069878 and those in Table 5) that have the potential to exert in vivo phototoxicity after systemic application. Briefly, the central 60 wells of two 96-well plates per AAQM were seeded with Balb/c 3T3 mouse fibroblast cells and maintained in culture for 24 hrs. These plates were then pre-incubated with a range of eight different concentrations of test compound (six wells per concentration) for one hour. Next, one plate was treated with a UVA dose of 5 J/cm2 by irradiating for 50 min at 1.7 mW/cm2, whereas the other plate remained non-treated and in the dark. Next, the treatment medium was replaced with culture medium and cell viability was determined after 24 hrs by measuring neutral red uptake for 3 hrs. Finally, the 3T3 NRU Phototox Prediction Software (version 2.0, ZEBET) was used to calculate EC50 values and Photo-Irritant Factors (PIF) for each compound. […]

[3] = Aotus, 10 mg/kg/day oral x7
Procedure: (§1) The P. berghei-mouse efficacy data were obtained from the WRAIR chemical information system (subcutaneous testing) or from recent tests conducted at AFRIMS, Thailand or at the University of Miami using a modified version of the Thompson test. Groups of five mice were inoculated through i.p. injection on day 0 (usually with 1×106 P. berghei-parasitized erythrocytes). The drugs in Table 1 were administered either subcutaneously or orally for three days (usually on days 3-5) at doses of 1.25-160 mg/kg in two to four fold increments. Cure was defined as survival until day 60 (subcutaneous dosing) or day 31 post-treatment (oral dosing). […] The minimum effective dose was the lowest dose level that cured at least one of five mice. The Aotus studies were performed according to Obaldia; Detection of Klebsiella pnuumoniae antibodies in Aotus l. lemurinus (Panamanian owl monkey) using an enzyme linked immunosorbent assay (ELIA) test; Lab Anim (25)133-141 (1991) and Obaldia et al., WR 238605, chloroquine, and their combinations as blood schizonticides against a chloroquine-resistant strain of Plasmodium vivax in Aotus monkeys; Am. J. Trop. Med. Hyg. (56)508-510 (1997), which are incorporated by reference, herein. Groups of two Aotus lemurinus 6 lemurinus of the karyotype VIII or IX (27) male and female monkeys with weights ranging from 742-970 g were inoculated with 5×10^6 parasites of either the FVO strain of P. falciparum or the AMRU1 strain of P. vivax. Both of these strains are chloroquine resistant. […] Monkeys were examined and thick Giemsa-stained blood smears were prepared and enumerated daily (17) to monitor the course of infection. […] In some instances, a high dose of the test drug was used to retreat monkeys instead of the mefloquine rescue. Monkeys are considered cured if they are parasite free 90 days post treatment. […] Plasma samples were taken from the monkeys in some studies for quantification of metabolites. Additional blood samples were taken as appropriate for complete blood counts and serum chemistry. Research was conducted in compliance with the Animal Welfare Act and other federal statutes and regulations relating to animals and experiments involving animals and adheres to principles stated in the Guide for the Care and Use of Laboratory Animals, NRC Publication, 1996 edition (34).

[4] = test system: FVO strain of P. falciparum; experiment: Efficacy in P. falciparum-challenged Aotus monkeys; type: in vivo, Plasmodium falciparum in Aotus lemurinus lemurinus
Procedure: as §1

P. falciparum TM91C235 = experiment: In vitro antimalarial activity against P. falciparum TM91C235; type: cell-based, Plasmodium falciparum
[5] = mouse, in vivo

CCCCN(CCCC)CC(O)c1cc(-c2ccc(Cl)c(Cl)c2)nc2c(Cl)cc(Cl)cc12 (stereo not drawn) [WR030090]
Cure rate [1]: at least 88% | Photo Irritant Factor (PIF) [2]: 105.7 | Mean peak concentration [3]: 307 ng/mL | Plasma conc on day 1 (ng/ml) 2 h ([3]; day 1, 2 h): 597 ng/mL | Plasma conc on day 1 (ng/ml) 24 h ([3]; day 1, 24 h): 11 ng/mL | Plasma conc. on day 7 (ng/ml) 2 h ([3]; day 7, 2 h): 16 ng/mL | Plasma conc. on day 7 (ng/ml) 24 h ([3]; day 7, 24 h): 5.6 ng/mL | Outcome in Aotus, earlier studies ([4]; 10 mg/kg/day x7, WRAIR archival data): cleared but did not cure infections | Outcome in Aotus ([4]; 10 mg/kg/day x7 oral, groups of two, Cure = parasite free 90 days, R = average day of recrudescence, Failure = rescued with mefloquine): Failure | Activity against P. falciparum TM91C235 (IC50 in ng/ml) (P. falciparum TM91C235): 11 ng/mL | TM91C235 IC90 (P. falciparum TM91C235; Table 2): 0.052 µg/mL | Phototoxicity in mice [5]: are phototoxic^d
